{"source": "BindingDB's records for doi:10.1016/j.bmcl.2012.10.009", "about": "(Abbott Laboratories, 2012)"}
{"assay": "Inhibition of PLK1 in human MIAPaCa2 cells after 48 hrs by MTT assay", "units": {"EC50": "nM"}}
{"smiles": "CC(C)(C)Nc1c(Nc2ccnc(Nc3ccc(-c4cccnc4)cc3)n2)c(=O)c1=O", "EC50": 2550}
{"smiles": "CC(C)(C)Nc1c(Nc2ccnc(Nc3ccc4c(c3)Cc3ccccc3-4)n2)c(=O)c1=O", "EC50": "> 30000"}
{"smiles": "CC(C)(C)Nc1c(Nc2ccnc(Nc3ccc4ncsc4c3)n2)c(=O)c1=O", "EC50": 2860}
{"smiles": "CC(C)(C)Nc1c(Nc2ccnc(Nc3ccc(-c4cn[nH]c4)cc3)n2)c(=O)c1=O", "EC50": 1610}
{"smiles": "CC(C)(C)Nc1c(Nc2ccnc(Nc3ccc4[nH]ncc4c3)n2)c(=O)c1=O", "EC50": 1470}
{"smiles": "CC(C)(C)Nc1c(Nc2ccnc(Nc3ccc4c(c3)CCO4)n2)c(=O)c1=O", "EC50": 2860}
{"smiles": "CC(C)(C)Nc1c(Nc2ccnc(Nc3ccc(-c4ccncc4)cc3)n2)c(=O)c1=O", "EC50": 1050}
{"smiles": "CC(=O)N1CCc2cc(Nc3nccc(Nc4c(NC(C)(C)C)c(=O)c4=O)n3)ccc21", "EC50": 1470}
{"smiles": "CC(C)(C)Nc1c(Nc2ccnc(Nc3ccc(N4CCOCC4)cc3)n2)c(=O)c1=O", "EC50": 8890}
{"smiles": "CC(C)(C)Nc1c(Nc2ccnc(Nc3ccc(-c4ccccc4)cc3)n2)c(=O)c1=O", "EC50": "> 30000"}
{"smiles": "CC(C)(C)Nc1c(Nc2ccnc(Nc3ccc(-c4csnn4)cc3)n2)c(=O)c1=O", "EC50": 8320}
{"smiles": "CC(C)(C)Nc1c(Nc2ccnc(Nc3ccc4c(c3)[nH]c3ccccc34)n2)c(=O)c1=O", "EC50": 5000}
{"smiles": "CC(C)(C)Nc1c(Nc2ccnc(Nc3ccc(-c4ccccn4)cc3)n2)c(=O)c1=O", "EC50": 8280}
